test system: G38D mutein; assay: Substrate spectrum: photometric reduction of keto substrates with NADH; type: biochemical; settings: relative to acetophenone; 10 mM keto substrate, 0.4 mM NADH, pH 7.0, 30° C.
Experimental: It is known that the NADP(H)-dependent wild-type enzyme can reduce numerous ketones, keto esters and other carbonyl-groupcontaining compounds stereospecifically. Hereinafter, only a few selected keto compounds are tested as substrates, in order to confirm that the substrate-recognition region has not been changed in principle by the change of coenzyme binding site. For this purpose the keto compounds are tested in the following mixture (total volume of 1 ml).
10 mM keto substrate; 1 MM MgCl2.6H2O; 0.4 mM NADH; 960 μl of triethanolamine buffer, 50 mM, pH 7.0; 10 μl of enzyme (G38D mutein); partly purified (phenylsepharose; see above).
The activity is determined photometrically at 340 nm (30° C.). The following table summarizes the activity values.

Compound	Activity, relative [%]
CCCCCC(C)=O [2-Heptanone]	207
CCCCC(C)=O [2-Hexanone]	169
CC1CCCCC1=O (stereo not drawn) [2-Methylcyclohexanone]	334
CCOC(=O)C(=O)CC [2-Oxobutyric acid ethyl ester]	137
CCOC(=O)C(=O)C(C)C [3-Methyl-2-oxobutyric acid ethyl ester]	84
CCC(=O)CC(=O)OC [3-Oxovaleric acid methyl ester]	127
CCOC(=O)CC(=O)CCl [4-Chloroacetoacetic acid ethyl ester]	228
CC(=O)c1ccc(Cl)cc1 [4-chloroacetophenone]	68
CCOC(=O)CC(C)=O [Acetoacetic acid ethyl ester]	88
COC(=O)CC(C)=O [Acetoacetic acid methyl ester]	188
CC(=O)c1ccccc1 [Acetophenone]	100
CCOC(=O)C(=O)CCc1ccccc1 [Benzyl pyruvate ethyl ester]	13
COC(=O)C(=O)c1ccccc1 [Phenylglyoxylic acid methyl ester]	10
CCOC(=O)C(C)=O [Pyruvic acid ethyl ester]	260
COC(=O)C(C)=O [Pyruvic acid methyl ester]	191

Reference: patent publication US20030054520A1, “Recombinant enzymes having improved NAD (H) affinity” (DEGUSSA AG, priority 2000, published 2003)
